Test results reported in PMC11249646, “Small-Molecule Disruptors of the Interaction between Calcium- and Integrin-Binding Protein 1 and Integrin αIIbβ3 as Novel Antiplatelet Agents” (ACS Pharmacology & Translational Science, 2024).
Like-named read-outs stand apart in the source and are kept apart here.

Target: T1, CIB1 and αIIb interaction (CIB1-GST : F-αIIb peptide) (Homo sapiens, UniProt Q99828)
T1 construct: made in house; host or cells: BL-21 plus RIL cells (E. coli)
T1 sequence (Q99828 1-191): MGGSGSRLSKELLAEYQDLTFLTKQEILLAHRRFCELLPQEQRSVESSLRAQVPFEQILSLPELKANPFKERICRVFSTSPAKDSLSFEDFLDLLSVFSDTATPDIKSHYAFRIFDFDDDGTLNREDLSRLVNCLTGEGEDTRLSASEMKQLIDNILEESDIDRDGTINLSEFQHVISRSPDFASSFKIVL
Assay: FP assay, 1536-well qHTS format (primary and confirmatory screen)
Assay type: binding
Conditions: for Efficacy (%): negative = inhibition; for Curve Class: negative sign = inhibitory curve; for IC50: read-out: IC50

[1] = qHTS primary screen hits, Table S2
[2] = qHTS primary screen hits, Table S2, several classes where COUNT > 1
[3] = qHTS primary screen of LOPAC/NPACT libraries

Structure (SMILES) | Efficacy (%) [1] [%] | Curve Class [2] | IC50 [1] [µM] | Curve Class [1] | Efficacy (%) [3] [%] | Curve Class [3] | IC50 [3] [µM]
N#C[C@@H]1C[C@@H]2C[C@@H]2N1C(=O)[C@@H](N)C12CC3CC(CC(O)(C3)C1)C2 [NCGC00242597-01] | -49 | -2.2 | 44.7 | – | – | – | –
O=C(O)C(F)(F)F.c1ccc(-n2cc(-c3nnc4n3CCCCC4)cn2)cc1 [NCGC00249642-01] | -39 | – | 89.1 | -2.4 | – | – | –
O=C(O)c1csc(-n2cc(Cc3ccc(CO)cc3)c(-c3cccc(-c4ccccc4)c3)n2)n1 [NCGC00371885-01] | -35 | -2.4 | 44.7 | – | – | – | –
CC(=O)NC(c1ccco1)c1cc(Cl)c2ccc(N(C)C)nc2c1O (centres unmarked) [NCGC00183714-01] | -39 | -2.2 | 50.1 | – | – | – | –
O=C(O)c1ccccc1Nc1cccc(OCc2ccc3ccccc3n2)c1 [NCGC00015965-05] | -42 | – | 50.1 | -2.2 | – | – | –
CC1CC2(O)OC(=O)C3=C2C(CCC3)[C@@]12C[C@@H](c1ccoc1)OC2=O (some centres unmarked) [NCGC00385045-01] | – | – | – | – | -23 | -2.4 | 31.6
CN1CCc2ccccc2Cc2[nH]c3ccccc3c2CC1 [NCGC00015614-05] | – | – | – | – | -28 | -2.4 | 31.6
NC1(C(=O)O)CCc2cc(C(=O)O)ccc21 (centres unmarked) [NCGC00015024-06] | – | – | – | – | -25 | -2.2 | 56.2
COc1cc2c(cc1OC)CN(CCc1ccc(NC(=O)c3cc(OC)c(OC)cc3NC(=O)c3cnc4ccccc4c3)cc1)CC2 [NCGC00346448-01] | -30 | -2.4 | 42.9 | – | – | – | –
O=C(Cn1nc(-c2ccc(F)cc2)ccc1=O)NCCc1ccccc1.O=C(O)C(F)(F)F [NCGC00262332-01] | -24 | – | 56.2 | -2.4 | – | – | –
O=C(O)C(F)(F)F.OCc1cn(Cc2ccc(O)c3ncccc23)cn1 [NCGC00183377-01] | -33 | -2.2 | 44.7 | – | – | – | –
O=C(CN1C(=O)N/C(=C\c2cn(-c3cccc(C(=O)O)c3)cn2)C1=O)Nc1ccc(Cl)cc1 [NCGC00182401-01] | -30 | -2.4 | 44.7 | – | – | – | –
Nc1ccc2c3c(cccc13)C(=O)NC2=O [NCGC00015035-07] | -70 | – | 2.5 | -1.2 | – | – | –
CCC(C)(OC(C)=O)C(=O)O[C@H]1[C@H](OC(C)=O)C[C@@H]2[C@@](C)([C@@H]3C[C@H]4C=CO[C@H]4O3)[C@H](C)C[C@H](OC(C)=O)[C@@]2(COC(C)=O)[C@@]12CO2 (some centres unmarked) [NCGC00380906-01] | – | – | – | – | -20 | -2.4 | 10
Cc1ccc(S(=O)(=O)Nc2ccc(O)c3ccccc23)c(C)c1.O=C(O)C(F)(F)F [NCGC00273983-01] | -34 | -2.4 | 56.2 | – | – | – | –
CNS(=O)(=O)c1ccc(Cc2c(-c3cccc(-c4ccccc4)c3)nn(-c3nc(C(=O)O)cs3)c2O)cc1.O=C(O)C(F)(F)F [NCGC00356637-01] | -55 | -3 | 79.4 | – | – | – | –
O=[N+]([O-])c1cccc2c(Br)n[nH]c12 [NCGC00015143-10] | – | – | – | – | -16 | -2.4 | 79.4
Nc1cc(-c2ccncc2)c[nH]c1=O [NCGC00016896-06] | -48 | -2.2 | 50.1 | – | – | – | –
CCN(CC)CCOc1ccc(Nc2ncc3cc(-c4c(Cl)cccc4Cl)c(=O)n(C)c3n2)cc1.Cl.Cl.O [NCGC00261745-01] | -36 | – | 50.1 | -2.2 | – | – | –
CCC(=O)NC(c1ccco1)c1cc(Br)c2cccnc2c1O (centres unmarked) [NCGC00183688-01] | -28 | – | 56.2 | -2.4 | – | – | –
COc1cccc(CNc2ccc(S(=O)(=O)Nc3ccc(C4CCNCC4)cc3)cc2)c1O.O=C(O)C(F)(F)F [NCGC00343917-01] | -46 | – | 50.1 | -2.4 | – | – | –
C=C1C(=O)O[C@H]2[C@H]1[C@@H](OC(=O)C(C)CO)C[C@@]1(C)[C@H](O)CCC(=O)[C@H]21 (some centres unmarked) [NCGC00169369-02] | – | – | – | – | -20 | -1.4 | 22.4
Cc1cc(O)c2c(c1)C(=O)c1cc(O)cc(O)c1C2=O [NCGC00015420-08] | -31 | – | 10 | -1.2 | – | – | –
CCCCCCCCCCCC[N+](C)(C)Cc1ccccc1.[Cl-] [NCGC00164245-03] | -38 | – | 50.1 | -2.2 | – | – | –
O=C(O)C(F)(F)F.O=C1CCCC2=C1C(c1n[nH]cc1Cl)NC(Nc1nc3ccccc3o1)=N2 (centres unmarked) [NCGC00242659-02] | -31 | -2.4 | 31.6 | – | – | – | –

Structure (SMILES) | Efficacy (%) [1] [%] | Curve Class [2] | IC50 [1] [µM] | Curve Class [1] | Efficacy (%) [3] [%] | Curve Class [3] | IC50 [3] [µM]
CO[C@@H](Cc1ccc(OCCc2nc(-c3ccccc3)oc2C)c2ccsc12)C(=O)O [NCGC00378922-01] | – | – | – | – | -15 | -1.4 | 20
CC(=O)Nc1sc2c(c1-c1nc3ccccc3s1)CCN(C(C)C)C2 [NCGC00183664-03] | -54 | -2.2 | 50.1 | – | – | – | –
C#CCOC(=O)NCCCC[C@H](N)C(=O)O [NCGC00351539-01] | -24 | -2.4 | 56.2 | – | – | – | –
CCOc1ccc(-c2cc(NC(=O)c3c(F)cccc3F)c(C(=O)O)s2)cc1 [NCGC00386875-01] | – | – | – | – | -21 | -1.4 | 14.1
Oc1c(Br)cc(Br)c2cccnc12 [NCGC00094815-05] | -41 | -2.2 | – | – | – | – | –
C=C1CC(=O)C2OC2(C)CC2OC(=O)C(=C)C2C(O)C1OC(=O)/C(C)=C\C (centres unmarked) [NCGC00381057-01] | – | – | – | – | -21 | -1.4 | 14.1
C=CC(=O)Nc1ccc(CN2C(=O)N(c3cc(OC)cc(OC)c3)Cc3cnc(Nc4ccc(N5CCN(C)CC5)cc4)nc32)cc1 [NCGC00484066-01] | – | – | – | – | -26 | -2.4 | 56.2
COC(=O)CC1OC(C)C2=C(O)c3c(O)cccc3C(=O)C23OC13 (centres unmarked) [NCGC00381362-01] | – | – | – | – | -22 | -2.4 | 25.1
OCC1O[C@H]([S-])[C@H](O)[C@@H](O)[C@@H]1O.[Au+] (some centres unmarked) [NCGC00162223-02] | – | – | – | – | -26 | -3 | 89.1
CO[C@@]1(NC(=O)CSCC#N)C(=O)N2C(C(=O)[O-])=C(CSc3nnnn3C)CS[C@@H]21.[Na+] [NCGC00023016-07] | -29 | -2.4 | 50.1 | – | – | – | –
COc1cc(SC)ccc1C(=O)N1CCC(Cc2ccccc2)CC1 [NCGC00167816-02] | – | – | – | – | -11 | -1.4 | 3.2
CNC[C@H](O)c1cccc(O)c1 [NCGC00024257-06] | -15 | -1.2 | 5.6 | – | – | – | –
CCCN1C[C@H](CSC)C[C@@H]2c3cccc4[nH]cc(c34)C[C@H]21 [NCGC00017366-05] | – | – | – | – | -29 | -2.2 | 50.1
O=C(O)C(F)(F)F.OCc1ccc(-c2ccc3ncnc(N4CCOCC4)c3c2)o1 [NCGC00238384-01] | -42 | -2.2 | 44.7 | – | – | – | –
Cc1c(C)c2c(c(C)c1OC(=O)CCC(=O)OCCO)CC[C@@](C)(CCC[C@H](C)CCC[C@H](C)CCCC(C)C)O2 [NCGC00183103-01] | -36 | -3 | 79.4 | – | – | – | –
Cc1cc(NS(=O)(=O)c2ccc(Nc3nc(-c4ccc(C)c(C)c4)cs3)cc2)no1.O=C(O)C(F)(F)F [NCGC00249742-01] | -32 | -2.4 | 44.7 | – | – | – | –
O=c1ccc2ccc(O)c(O)c2o1 [NCGC00015349-05] | – | – | – | – | -13 | -2.4 | 70.8
CO/N=C(\C(=O)N[C@@H]1C(=O)N2C(C(=O)O)=C(CSc3nc(=O)c(O)nn3C)CSC12)c1csc(N)n1 (some centres unmarked) [NCGC00162111-02] | – | – | – | – | -18 | -1.2 | 20
O=C1c2c(O)cc(O)cc2OC(c2ccc(O)c(O)c2)C1O (centres unmarked) [NCGC00261882-01] | – | – | – | – | -14 | -1.2 | 10
CC(C)N1CCc2c(sc(NC(=O)Cc3ccccc3)c2-c2nc3ccccc3s2)C1.O=C(O)C(F)(F)F [NCGC00184841-01] | -104 | – | 28.2 | -2.1 | – | – | –
COc1cccc(CNc2ccc(S(=O)(=O)Nc3nc(-c4ccccc4)cs3)cc2)c1O.O=C(O)C(F)(F)F [NCGC00346865-01] | -34 | – | 50.1 | -2.4 | – | – | –
Cl.Cl.Nc1ccc(/N=N/c2ccccc2)c(N)n1 [NCGC00018130-09] | -22 | – | 79.4 | -2.4 | – | – | –
O=S(=O)(Nc1cc(O)cc2cccnc12)c1ccc(Cl)s1 [NCGC00161701-01] | -37 | -2.4 | 50.1 | – | – | – | –
CSc1ccc(/C=C2/C(C)=C(CC(=O)O)c3cc(F)ccc32)cc1 [NCGC00161601-02] | -32 | -2.4 | 79.4 | – | – | – | –
